What is called EC50 is the concentration at which the effect is half-maximal. A lower EC50 goes with an effect from little substance. Usually IC50 stands for the point on the concentration scale where inhibition reaches its midpoint. A lower IC50 goes with greater potency.

The source of these data is patent US20260242391A1 (priority 2023, published 2026).

Data set [1] has as its system HL-60. The data set can be described thus: HL-60 differentiation potency. Format: cell-based. To be noted: Homo sapiens.
Data set [2] can be described thus: in vitro. The note with it: human.

Consider `C[C@@H]1CC[C@H]2[C@@H](C)C(OCc3ccc(C(=O)O)cc3F)O[C@@H]3O[C@@]4(C)CC[C@@H]1[C@]32OO4` (stereo in doubt) [Compound 45, 3-fluoro-4-((((3R,5aS,6R,8aS, 9R,10S,12R, 12aR)-3,6,9-trimethyldeca-hydro-12H-3,12-epoxy[1,2]dioxepino[4,3-i]isochromen-10-yl)oxy)methyl) benzoic acid], for which, in data set [1], the EC50 was 662 nM. This compound also had an IC50 in data set [2] greater than 20000 nM.
In the same order, the values of `C[C@H]1[C@@H](OCc2ccc3c(c2)OC(F)(F)O3)O[C@@H]2O[C@@]3(C)CC[C@H]4[C@H](C)CC[C@@H]1[C@@]24OO3` [Compound 1, (3R,5aS,6R,8aS, 9R,10S,12R, 12aR)-10-((2,2-difluorobenzo[d] [1,3]dioxol-5-yl)methoxy)-3,6,9-trimethyldeca-hydro-12H-3,12-epoxy[1,2] dioxepino[4,3-i]isochromene] are 11.1 nM and 10.6 nM.
In the same order, the values of `C[C@H]1[C@H](OCc2ccc(-c3nn[nH]n3)cc2)O[C@@H]2O[C@@]3(C)CC[C@H]4[C@H](C)CC[C@@H]1[C@@]24OO3` [Compound 2, 5-(4-((((3R,5aS,6R, 8aS,9R,10R,12R, 12aR)-3,6,9-trimethyldeca-hydro-12H-3,12-epoxy[1,2]dioxepino[4,3-i]isochromen-10-yl)oxy)methyl)phenyl)-2H-tetrazole] are 41.3 nM and 58.5 nM.
In the same order, the values of `COc1cc(CC(=O)O)ccc1O[C@H]1O[C@@H]2O[C@@]3(C)CC[C@H]4[C@H](C)CC[C@@H]([C@H]1C)[C@@]24OO3` [Compound 3, 2-(3-methoxy-4-(((3R,5aS,6R, 8aS,9R,10S,12R, 12aR)-3,6,9-trimethyldeca-hydro-12H-3,12-epoxy[1,2]dioxepino[4,3-i]isochromen-10-yl)oxy)phenyl) acetic acid] are 42.3 nM and greater than 20000 nM.
Regarding `C[C@H]1[C@H](N2CC(S(C)(=O)=O)C2)O[C@@H]2O[C@@]3(C)CC[C@H]4[C@H](C)CC[C@@H]1[C@@]24OO3` [Compound 4, 3-(methylsulfonyl)-1-((3R,5aS,6R, 8aS,9R,10R, 12R,12aR)-3,6,9-trimethyldeca-hydro-1H-3,12-epoxy[1,2]dioxepino[4,3-i]isochromen-10-yl)azetidine], the EC50 in data set [1] worked out at 42.8 nM. The compound also displayed a half-maximal inhibitory concentration (IC50) in data set [2] of 101 nM.
In data set [1], `C[C@H]1[C@@H](OCc2ccc(C(=O)NO)cc2)O[C@@H]2O[C@@]3(C)CC[C@H]4[C@H](C)CC[C@@H]1[C@@]24OO3` [Compound 5, N-hydroxy-4-((((3R,5aS,6R,8aS, 9R,10S,12R, 12aR)-3,6,9-trimethyldeca-hydro-12H-3,12-epoxy[1,2]dioxepino[4,3-i]isochromen-10-yl)oxy)methyl) benzamide] showed an EC50 of 52.2 nM. Moreover, in data set [2], it took 2880 nM to reach half-maximal inhibition (IC50).
The like results for `C[C@H]1[C@H](OCc2ccc3c(c2)OC(F)(F)O3)O[C@@H]2O[C@@]3(C)CC[C@H]4[C@H](C)CC[C@@H]1[C@@]24OO3` [Compound 6, (3R,5aS,6R,8aS, 9R,10R,12R, 12aR)-10-((2,2-difluorobenzo [d][1,3]dioxol-5-yl)methoxy)-3,6,9-trimethyldeca-hydro-12H-3,12-epoxy[1,2] dioxepino[4,3-i] isochromene] were, in that order, 53.2 nM and 50 nM.
In the same order, the values of `C[C@H]1[C@H](OCc2ccc(C#N)cc2)O[C@@H]2O[C@@]3(C)CC[C@H]4[C@H](C)CC[C@@H]1[C@@]24OO3` [Compound 7, 4-((((3R,5aS,6R, 8aS,9R,10R,12R, 12aR)-3,6,9-trimethyldeca-hydro-12H-3,12-epoxy[1,2]dioxepino[4,3-i]isochromen-10-yl)oxy)methyl) benzonitrile] are 54.6 nM and 192 nM.
The like results for `Cc1cc(CC(=O)O)ccc1O[C@H]1O[C@@H]2O[C@@]3(C)CC[C@H]4[C@H](C)CC[C@@H]([C@H]1C)[C@@]24OO3` [Compound 8, 2-(3-methyl-4-(((3R,5aS,6R,8aS, 9R,10S,12R, 12aR)-3,6,9-trimethyldeca-hydro-12H-3,12-epoxy[1,2]dioxepino[4,3-i]isochromen-10-yl)oxy)phenyl) acetic acid] were, in that order, 57.7 nM and greater than 20000 nM.
With `C[C@H]1[C@@H](Oc2ccc(CC(=O)O)cc2F)O[C@@H]2O[C@@]3(C)CC[C@H]4[C@H](C)CC[C@@H]1[C@@]24OO3` [Compound 9, 2-(3-fluoro-4-(((3R,5aS,6R, 8aS,9R,10S,12R, 12aR)-3,6,9-trimethyldeca-hydro-12H-3,12-epoxy[1,2]dioxepino[4,3-i]isochromen-10-yl)oxy)phenyl) acetic acid], in data set [1], a half-maximal response (EC50) required 59.3 nM. The IC50 in data set [2] was greater than 20000 nM.
In the same order, the values of `C[C@H]1[C@@H](OCCCc2ccc(C(=O)O)cc2)O[C@@H]2O[C@@]3(C)CC[C@H]4[C@H](C)CC[C@@H]1[C@@]24OO3` [Compound 10, 4-(3-(((3R,5aS,6R, 8aS,9R,10S,12R, 12aR)-3,6,9-trimethyldeca-hydro-12H-3,12-epoxy[1,2]dioxepino[4,3-i]isochromen-10-yl)oxy)propyl) benzoic acid] are 63.8 nM and greater than 10000 nM.
In the same order, the values of `C[C@H]1[C@@H](OC[C@H]2CC[C@@H](C(=O)O)CC2)O[C@@H]2O[C@@]3(C)CC[C@H]4[C@H](C)CC[C@@H]1[C@@]24OO3` [Compound 11, (1R,4s)-4-((((3R,5aS,6R,8aS, 9R,10S,12R, 12aR)-3,6,9-trimethyldeca-hydro-12H-3,12-epoxy[1,2]dioxepino[4,3-i]isochromen-10-yl)oxy)methyl) cyclohexane-1-carboxylic acid] are 87.4 nM and greater than 20000 nM.
As for `C[C@H]1[C@H](Oc2ccc(CC(=O)O)cc2)O[C@@H]2O[C@@]3(C)CC[C@H]4[C@H](C)CC[C@@H]1[C@@]24OO3` [Compound 12, 2-(4-(((3R,5aS, 6R,8aS,9R,10R, 12R,12aR)-3,6,9-trimethyldeca-hydro-12H-3,12-epoxy[1,2]dioxepino[4,3-i]isochromen-10-yl)oxy)phenyl) acetic acid], the response in data set [1] was half-maximal at 92.4 nM (EC50). In data set [2], this compound returned an IC50 greater than 20000 nM.
The like results for `C[C@H]1[C@@H](OCc2ccc(C(=O)O)nc2)O[C@@H]2O[C@@]3(C)CC[C@H]4[C@H](C)CC[C@@H]1[C@@]24OO3` [Compound 13, 5-((((3R,5aS,6R, 8aS,9R,10S,12R, 12aR)-3,6,9-trimethyldeca-hydro-12H-3,12-epoxy[1,2]dioxepino[4,3-i]isochromen-10-yl)oxy)methyl) picolinic acid] were, in that order, 88.9 nM and 1420 nM.
The like results for `C[C@H]1[C@@H](OCc2ccnc(C(=O)O)c2)O[C@@H]2O[C@@]3(C)CC[C@H]4[C@H](C)CC[C@@H]1[C@@]24OO3` [Compound 15, 4-((((3R,5aS,6R, 8aS,9R,10S,12R, 12aR)-3,6,9-trimethyldeca-hydro-12H-3,12-epoxy[1,2]dioxepino[4,3-i]isochromen-10-yl)oxy)methyl) picolinic acid] were, in that order, 93.1 nM and 2550 nM.
In the same order, the values of `C[C@H]1[C@@H](Oc2ccc(CC(=O)O)cc2Cl)O[C@@H]2O[C@@]3(C)CC[C@H]4[C@H](C)CC[C@@H]1[C@@]24OO3` [Compound 16, 2-(3-chloro-4-(((3R,5aS,6R,8aS, 9R,10S,12R, 12aR)-3,6,9-trimethyldeca-hydro-12H-3,12-epoxy[1,2]dioxepino[4,3-i]isochromen-10-yl)oxy)phenyl) acetic acid] are 94.8 nM and greater than 10000 nM.
`C[C@H]1[C@H](N(C)CCS(C)(=O)=O)O[C@@H]2O[C@@]3(C)CC[C@H]4[C@H](C)CC[C@@H]1[C@@]24OO3` [Compound 17, (3R,5aS,6R,8aS, 9R,10R,12R, 12aR)-N,3,6,9-tetramethyl-N-(2-(methylsulfonyl)ethyl)decahydro-12H-3,12-epoxy [1,2]dioxepino [4,3-i] isochromen-10-amine] returned a half-maximal effective concentration (EC50) in data set [1] of 95.5 nM. Besides, the IC50 in data set [2] was determined as 243 nM.
In the same order, the values of `C[C@H]1[C@@H](OCc2ccc(S(N)(=O)=O)cc2)O[C@@H]2O[C@@]3(C)CC[C@H]4[C@H](C)CC[C@@H]1[C@@]24OO3` [Compound 18, 4-((((3R,5aS,6R, 8aS,9R,10S,12R, 12aR)-3,6,9-trimethyldeca-hydro-12H-3,12-epoxy[1,2]dioxepino[4,3-i]isochromen-10-yl)oxy)methyl) benzene-sulfonamide] are 99 nM and 2250 nM.
The like results for `C[C@H]1[C@@H](OCc2ccc(C#N)cc2)O[C@@H]2O[C@@]3(C)CC[C@H]4[C@H](C)CC[C@@H]1[C@@]24OO3` [Compound 19, 4-((((3R,5aS,6R, 8aS,9R,10S,12R, 12aR)-3,6,9-trimethyldeca-hydro-12H-3,12-epoxy[1,2]dioxepino[4,3-i]isochromen-10-yl)oxy)methyl) benzonitrile] were, in that order, 104 nM and 138 nM.
The like results for `C[C@H]1[C@@H](Oc2cccc(CC(=O)O)c2)O[C@@H]2O[C@@]3(C)CC[C@H]4[C@H](C)CC[C@@H]1[C@@]24OO3` [Compound 20, 2-(3-(((3R,5aS,6R, 8aS,9R,10S,12R, 12aR)-3,6,9-trimethyldeca-hydro-12H-3,12-epoxy[1,2]dioxepino[4,3-i]isochromen-10-yl)oxy)phenyl) acetic acid] were, in that order, 116 nM and 8330 nM.
With `C[C@H]1[C@H](OCCCc2ccc(C(=O)O)cc2)O[C@@H]2O[C@@]3(C)CC[C@H]4[C@H](C)CC[C@@H]1[C@@]24OO3` [Compound 21, 4-(3-(((3R,5aS,6R,8aS, 9R,10R,12R, 12aR)-3,6,9-trimethyldeca-hydro-12H-3,12-epoxy[1,2]dioxepino[4,3-i]isochromen-10-yl)oxy)propyl) benzoic acid], a half-maximal response in data set [1] (EC50) required 123 nM. In addition, the IC50 in data set [2] was greater than 20000 nM.
In the case of `C[C@H]1[C@@H](Oc2ccc(CC(=O)O)c(F)c2F)O[C@@H]2O[C@@]3(C)CC[C@H]4[C@H](C)CC[C@@H]1[C@@]24OO3` [Compound 23, 2-(2,3-difluoro-4-(((3R,5aS,6R,8aS, 9R,10S,12R, 12aR)-3,6,9-trimethyldeca-hydro-12H-3,12-epoxy[1,2]dioxepino[4,3-i]isochromen-10-yl)oxy)phenyl) acetic acid], the EC50 in data set [1] was 192 nM. Further, 15000 nM corresponded to half-maximal inhibition in data set [2] (IC50).
